Data published in patent publication US20230202989A1, “COMPOUNDS” (JANSSEN PHARMACEUTICA NV, priority 2020, published 2023).

Legend:
TNF = test: PBMC assay: TNF cytokine levels after LPS stimulation (MSD); type: cell-based; conditions: Homo sapiens, PBMC, 6 h, human PBMCs, 100 ng/ml LPS for 6 hrs
Outline: (§1)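 Cryopreserved human PBMCs (7.5×10^4/well) in RPMI/10% FBS were preincubated with serially diluted compound for 30 min at 37 °C, then stimulated with 100 ng/ml LPS for 6 h. Supernatant IL-1β and TNF measured by MSD. IC50 derived for IL-1β, EC50 for TNF.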

IL-1β = test: PBMC assay: inhibition of IL-1β release after LPS stimulation (MSD); type: cell-based; conditions: Homo sapiens, PBMC, 6 h, human PBMCs, 100 ng/ml LPS for 6 hrs, MSD, 96 well plates; read-out: IL1β IC50
Outline: as §1

Compound	EC50 (TNF) [nM]	IC50 (IL-1β) [nM]	melting point [°C]
CCN1CC[C@@H](O)[C@@H](NC(=O)Cn2nc(C3CC3)c3cc(C(F)(F)F)ccc3c2=O)C1 [Final Cpd X19]	> 20000	161	178.86
CC(C)c1nn(CC(=O)Nc2cc(F)[nH]c(=O)c2)c(=O)c2ccc(C(F)(F)F)cc12 [Final Cpd X22]	> 20000	170	232.18
CC(C)c1nn(CC(=O)Nc2ccn3ncnc3c2)c(=O)c2ccc(C(F)(F)F)cc12 [Final Cpd X90]	> 20000	936	215.56

Second part, the compound after the results:

EC50 (TNF) [nM]	IC50 (IL-1β) [nM]	melting point [°C]	Compound
15500	164	222.09	CC(C)c1nn(CC(=O)Nc2ccc3cncn3c2)c(=O)c2ccc(C(F)(F)F)cc12 [Final Cpd X20]
> 20000	172	294.49	O=C(Cn1nc(C2CC2)c2cc(C(F)(F)F)ccc2c1=O)Nc1ccc2nncn2c1 [Final Cpd X23]
